Reference: patent publication US20260209789A1, “TRIGGER-INDUCIBLE MRNA CIRCULARIZATION” (WESTLAKE UNIVERSITY, priority 2022, published 2026)

Columns and labels:
GNCR: NS3a system = experiment: Grazoprevir-inducible SEAP translation in HEK-293 cells (fold-change, dose-dependence, kinetics vs transcriptional switch); conditions: three tandem GNCR and NS3a repeats
Excerpt: Optimization of an L7Ae-based grazoprevir-inducible gene switch. (A) Translational regulation by grazoprevir-dependent STIF association. […] (B) Translational regulation by different grazoprevir-dependent NSP3-fusion proteins. […] (C) Translational regulation by different grazoprevir-dependent L7Ae-fusion proteins.
Optimized L7Ae- and MCP-based grazoprevir-inducible gene switch in mammalian cells. (A) Optimized grazoprevir-inducible regulation of SEAP translation. […] (B, C) Dose-dependent grazoprevir-inducible SEAP expression.
Comparative analysis of gene switches based on STIF-based translation and state-of-the-art transcription-centered designs. (A) Kinetics of grazoprevir-inducible SEAP expression. […] (B) Endpoint performance of grazoprevir-induced translational and transcriptional gene switch switches.

[1] = test system: STIF-specific target gene mRNA; experiment: Translational regulation by constitutive bipartite STIF reconstitution (SEAP, NanoLuc) in HEK-293 cells; format: cell-based, human; conditions: 48 h
Excerpt: FIG. 8. Translational regulation by spontaneous assembly of bipartite STIFs. (A) Translational regulation through constitutive STIF reconstitution. […] Transfection of pcDNA3.1 (+) instead of NSP3-fusion proteins was used as a negative control. […] (B) Compatibility of STIF-mediated translational regulation with split-complementation approaches. […] For (−) conditions, pcDNA3.1 (+) was transfected instead of expression vectors.
FIG. 9. Translational regulation through constitutive Coh2/DocS-mediated STIF reconstitution. (A) Site-specific translational activation by eIFBP overexpression. HEK-293 cells were (co-) transfected with an expression vector for SEAP-mRNA containing 24 tandem C/D-box-(left panel, pSL355) or MS2-box repeats in the 3′-UTR (right panel, pSL468), constitutive expression vectors for L7Ae (left) or MCP (right) fused to Coh2 (L7Ae-Coh2, pSL83; MCP-Coh2, pSL674) or EGFP (L7Ae-EGFP, pSL1078; MCP-EGFP, pSL435) and constitutive expression vectors for various chimeric Coh2-specific DocS-containing eIFBP fusions (PABP-DocS, pSL47; DocS-eIF4G, pSL87; DocS-eIF4E, pLZ312; DocS-NSP3, pSL66; DocS-VPg, pLZ311). Transfection of pcDNA3.1 (+) instead of DocS- or MCP-expressing vectors was used as a negative control. […] SEAP (left) and NanoLuc levels in culture supernatants (right) were quantified at 48 h post-transfection. […]

[2] = test system: STIF-specific target gene mRNA; experiment: STIF-mediated translation of reporter mRNA (SEAP, FLuc, EGFP) in HEK-293 cells; format: cell-based, human; conditions: 48 h; for induction folds between basal and activated states (SEAP): HHR-mediated poly (A)-removal, 24 aptamer repeats
Excerpt: FIG. 2. Design and validation of different STIF constructs consisting of RNA-binding protein (RBPs) fused to different eIF4F-binding moieties (eIFBP). (A) Synthetic translation initiation factors (STIFs)-mediated translation of L7Ae-specific SEAP-mRNA with shRNA-216-cleavable poly (A). […] (B) STIF-mediated translation of MCP-specific SEAP-mRNA with shRNA-216-cleavable poly (A). […] (C) Correlation between C/D-box-based aptamer region size and STIF-mediated SEAP expression. HEK-293 cells were co-transfected with SEAP expression vectors containing different tandem repeats of the L7Ae-specific C/D-box aptamer ((C/D-box)8, pSL31; (C/D-box)12, pSL81; (C/D-box)16, pSL80; (C/D-box)24, pSL88), an shRNA-216 expression vector (pSL4) and an expression vector for either PABP-L7Ae (ON; pLZ16) or a Coh2-L7Ae protein incapable of binding eIF4F (OFF; pSL44). […] Data presented are mean±SD, n=4 individual experiments. (D) Correlation between MS2-box-based aptamer region size and STIF-mediated SEAP expression. HEK-293 cells were transfected with SEAP expression vectors containing different tandem repeats of the MCP-specific MS2-box aptamer ((MS2-box)8, pSL515; (MS2-box)12, pSL1284; (MS2-box)16, pSL516; (MS2-box)24, pSL468) and constitutive expression vectors for either MCP-NSP3 (ON; pSL95) or an MCP-Coh2 protein incapable of binding eIF4F (OFF; pSL674). […] Data presented are mean±SD, n=4 individual experiments.
FIG. 5. Translational regulation of SEAP-, Firefly Luciferase and EGFP-mRNA with self-cleavable poly (A). (A) STIF-mediated translation of L7Ae-specific SEAP-mRNA with HHR-cleavable poly (A). […] (B) STIF-mediated translation of MCP-specific SEAP-mRNA with HHR-cleavable poly (A). […] (C, D) STIF-mediated regulation at the protein level of gene expression.

(DocS)3 = biological target: T1, (DocS)3 (Acetivibrio thermocellus, UniProt A3DH67); experiment: Coh2/DocS-based STIF protein sensor for cytosolic (DocS)3; conditions: different amounts of pSL244, 48 h
T1 sequence (A3DH67 with tags, fused parts or gaps): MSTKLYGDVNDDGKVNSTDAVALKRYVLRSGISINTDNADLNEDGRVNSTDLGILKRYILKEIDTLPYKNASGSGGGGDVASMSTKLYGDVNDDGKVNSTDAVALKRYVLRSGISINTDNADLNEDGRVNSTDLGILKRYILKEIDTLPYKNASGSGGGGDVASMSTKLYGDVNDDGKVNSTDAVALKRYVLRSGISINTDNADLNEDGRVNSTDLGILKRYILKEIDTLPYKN

[3] = Grazoprevir-inducible SEAP production in mice (hydrodynamic tail vein injection); conditions: C57BL/6 mice, hydrodynamically injected gene switch, 3 daily administrations, 24 h after first
[4] = Treatment of type-1 diabetes by oral grazoprevir-inducible insulin expression; conditions: T1D mice with grazoprevir-inducible insulin gene therapy, oral 3 mg/kg
[5] = test system: MAPK signaling (phosphorylated ERK2); experiment: Phosphorylation-dependent STIF reconstitution sensor (pE59/ERK2), NanoLuc/FLuc; format: cell-based; conditions: 100 ng/mL recombinant human EGF, 48 h
Excerpt: FIG. 11. Genetically encoded signalling-specific sensors employing phosphorylation-dependent STIF reconstitution. (A) L7Ae-based STIFs. […] For (−) conditions, pcDNA3.1 (+) was transfected instead of expression vectors. Data presented are mean±SD of relative luciferase activity (NanoLuc/FLuc), n=3 individual experiments. (B) MCP-based STIFs. […] For (−) conditions, pcDNA3.1 (+) was transfected instead of expression vectors. Data presented are mean±SD of relative luciferase activity (NanoLuc/FLuc), n=3 individual experiments.
Translational regulation by trigger-inducible STIF systems can also be engineered in various other ways. […] In this configuration, HEK-293 cells were transfected with an expression vector for SEAP-mRNA containing 16 tandem MS2-box repeats in the 3′-UTR (SEQ-ID NO: 138) and constitutive expression vectors for MCP-LaM8AK47 (SEQ-ID NO: 241) and mCherry-NSP3 (SEQ-ID NO: 250). […] In the future, engineering of similar sensors for other signalling pathways can be readily achieved by exchanging the pE59 (SEQ-ID NO: 110) and ERK2 (SEQ-ID NO: 85) domains by other signalling specific PPI systems. […]

[6] = 20 h after first administration

L7Ae-(NS3a)3: trigger-inducible STIF regulator
regulation performance (fold-change, dose-dependence, activation kinetics) (GNCR: NS3a system): best regulation performance

MCP-(NS3a)3: trigger-inducible STIF regulator
regulation performance (fold-change, dose-dependence, activation kinetics) (GNCR: NS3a system): best regulation performance

MCP-Coh2: bipartite STIF regulator
target gene translation by spontaneous STIF assembly (SEAP) [1]: modular and effective translational regulation

L7Ae-NSP3: STIF fusion protein
induction folds between basal and activated states (SEAP) [2]: highest induction folds

MCP-(Coh2)3: bipartite STIF regulator
detection of cytosolic (DocS)3 (SEAP) ((DocS)3): in a dose-dependent manner

C=C[C@@H]1C[C@]1(NC(=O)[C@@H]1C[C@@H]2CN1C(=O)[C@H](C(C)(C)C)NC(=O)O[C@@H]1C[C@H]1CCCCCc1nc3ccc(OC)cc3nc1O2)C(=O)NS(=O)(=O)C1CC1.O [grazoprevir]
oral dose sufficient to fully activate the system (SEAP levels in the bloodstream) [3]: 3 mg/kg | correction of hyperglycemia (fasting glycemia) [4, 6]: almost complete correction | correction of insulin deficiency (blood insulin levels) [4, 6]: almost complete correction | correction of glucose intolerance (intraperitoneal GTT) ([4]; 24 h after first administration): almost complete correction

MCP-NSP3: STIF fusion protein
induction folds between basal and activated states (SEAP) [2]: highest induction folds | regulation of other reporter genes (FLuc, EGFP) ([2]; MCP-specific poly (A)-surrogate): could also regulate a variety of other reporter genes

EGF: Animal-free recombinant human EGF (NSDSECPLSHDGYCLHDGVCMYIEALDKYACNCVVGYIGERCQYRDLKWWELR; Epidermal growth factor; UniProt P01133 971-1023, looked up)
reporter levels (NanoLuc/FLuc) vs MAPK activity [5]: increases in reporter levels correlate with increased MAPK activity
